We go through five compounds from publication doi:10.1101/2023.03.24.534094v2 (biorxiv, 2023).

What all share (test): biochemical
The target in assay [1] is T1, EphB3 (Homo sapiens, UniProt P54753).
T1 sequence (P54753 1-998): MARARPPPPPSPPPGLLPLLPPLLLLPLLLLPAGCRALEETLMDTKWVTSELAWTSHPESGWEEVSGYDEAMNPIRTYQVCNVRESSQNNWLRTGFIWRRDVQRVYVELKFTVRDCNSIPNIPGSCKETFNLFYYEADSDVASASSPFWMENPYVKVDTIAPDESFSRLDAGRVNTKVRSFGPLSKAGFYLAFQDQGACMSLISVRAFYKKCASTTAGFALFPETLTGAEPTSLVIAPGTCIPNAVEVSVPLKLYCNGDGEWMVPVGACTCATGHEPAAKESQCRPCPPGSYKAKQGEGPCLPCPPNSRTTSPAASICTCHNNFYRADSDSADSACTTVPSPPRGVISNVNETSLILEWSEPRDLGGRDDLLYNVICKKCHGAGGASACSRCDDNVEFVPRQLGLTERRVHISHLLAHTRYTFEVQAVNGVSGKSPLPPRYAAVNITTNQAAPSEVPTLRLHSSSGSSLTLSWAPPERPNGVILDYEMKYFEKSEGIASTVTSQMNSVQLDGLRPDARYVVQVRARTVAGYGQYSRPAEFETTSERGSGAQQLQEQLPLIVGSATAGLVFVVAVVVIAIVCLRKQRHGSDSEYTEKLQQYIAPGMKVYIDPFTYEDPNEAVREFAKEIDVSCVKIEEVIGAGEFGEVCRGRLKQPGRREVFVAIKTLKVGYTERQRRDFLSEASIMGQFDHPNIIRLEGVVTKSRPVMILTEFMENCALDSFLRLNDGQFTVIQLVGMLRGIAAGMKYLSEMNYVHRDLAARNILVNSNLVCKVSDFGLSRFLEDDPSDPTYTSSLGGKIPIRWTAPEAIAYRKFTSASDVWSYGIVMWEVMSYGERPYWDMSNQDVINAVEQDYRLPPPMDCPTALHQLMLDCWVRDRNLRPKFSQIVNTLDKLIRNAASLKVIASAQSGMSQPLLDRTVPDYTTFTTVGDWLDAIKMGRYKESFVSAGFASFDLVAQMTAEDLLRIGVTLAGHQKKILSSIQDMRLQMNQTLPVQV

In assay [2] the target is FGFR2 (Homo sapiens, UniProt P21802).
Sequence of FGFR2 (P21802 whole entry): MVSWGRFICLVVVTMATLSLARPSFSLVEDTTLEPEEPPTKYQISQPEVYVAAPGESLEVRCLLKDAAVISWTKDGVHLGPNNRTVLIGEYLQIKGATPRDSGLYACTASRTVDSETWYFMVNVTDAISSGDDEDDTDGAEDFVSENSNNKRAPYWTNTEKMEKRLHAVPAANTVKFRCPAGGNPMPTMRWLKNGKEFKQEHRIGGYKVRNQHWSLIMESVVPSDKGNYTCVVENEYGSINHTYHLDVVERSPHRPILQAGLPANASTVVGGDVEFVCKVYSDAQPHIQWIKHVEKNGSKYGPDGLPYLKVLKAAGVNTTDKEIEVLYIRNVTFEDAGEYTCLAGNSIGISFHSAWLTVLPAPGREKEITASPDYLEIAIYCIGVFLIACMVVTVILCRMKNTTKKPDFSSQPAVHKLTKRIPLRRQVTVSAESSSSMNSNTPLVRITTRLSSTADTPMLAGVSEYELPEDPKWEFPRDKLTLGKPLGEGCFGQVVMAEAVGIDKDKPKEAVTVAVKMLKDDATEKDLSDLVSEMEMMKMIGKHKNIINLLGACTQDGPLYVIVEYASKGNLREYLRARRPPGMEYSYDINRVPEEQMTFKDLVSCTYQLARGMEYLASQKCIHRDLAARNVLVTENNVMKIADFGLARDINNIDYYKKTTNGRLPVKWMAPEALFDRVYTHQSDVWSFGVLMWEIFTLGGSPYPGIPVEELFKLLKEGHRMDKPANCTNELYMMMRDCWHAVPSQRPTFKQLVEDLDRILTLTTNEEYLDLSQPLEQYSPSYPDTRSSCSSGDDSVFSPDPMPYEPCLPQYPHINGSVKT
For assay [3], the target named is GSK3B (Homo sapiens, UniProt P49841).
Sequence of GSK3B (P49841 whole entry): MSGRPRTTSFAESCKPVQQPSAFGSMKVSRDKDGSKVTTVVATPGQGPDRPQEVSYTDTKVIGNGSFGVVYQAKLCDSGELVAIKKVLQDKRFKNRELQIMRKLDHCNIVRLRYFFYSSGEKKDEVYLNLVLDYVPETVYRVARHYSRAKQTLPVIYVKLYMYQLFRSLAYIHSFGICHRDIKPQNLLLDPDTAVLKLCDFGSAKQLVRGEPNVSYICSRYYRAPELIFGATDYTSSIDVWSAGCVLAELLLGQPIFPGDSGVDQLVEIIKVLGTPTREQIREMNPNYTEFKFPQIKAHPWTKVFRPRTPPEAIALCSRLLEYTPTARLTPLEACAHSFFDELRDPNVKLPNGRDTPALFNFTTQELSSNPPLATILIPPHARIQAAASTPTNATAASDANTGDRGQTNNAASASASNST
Assay [4] concerns the target T2, Haspin (Homo sapiens, UniProt Q8TF76).
T2 sequence (Q8TF76 1-798): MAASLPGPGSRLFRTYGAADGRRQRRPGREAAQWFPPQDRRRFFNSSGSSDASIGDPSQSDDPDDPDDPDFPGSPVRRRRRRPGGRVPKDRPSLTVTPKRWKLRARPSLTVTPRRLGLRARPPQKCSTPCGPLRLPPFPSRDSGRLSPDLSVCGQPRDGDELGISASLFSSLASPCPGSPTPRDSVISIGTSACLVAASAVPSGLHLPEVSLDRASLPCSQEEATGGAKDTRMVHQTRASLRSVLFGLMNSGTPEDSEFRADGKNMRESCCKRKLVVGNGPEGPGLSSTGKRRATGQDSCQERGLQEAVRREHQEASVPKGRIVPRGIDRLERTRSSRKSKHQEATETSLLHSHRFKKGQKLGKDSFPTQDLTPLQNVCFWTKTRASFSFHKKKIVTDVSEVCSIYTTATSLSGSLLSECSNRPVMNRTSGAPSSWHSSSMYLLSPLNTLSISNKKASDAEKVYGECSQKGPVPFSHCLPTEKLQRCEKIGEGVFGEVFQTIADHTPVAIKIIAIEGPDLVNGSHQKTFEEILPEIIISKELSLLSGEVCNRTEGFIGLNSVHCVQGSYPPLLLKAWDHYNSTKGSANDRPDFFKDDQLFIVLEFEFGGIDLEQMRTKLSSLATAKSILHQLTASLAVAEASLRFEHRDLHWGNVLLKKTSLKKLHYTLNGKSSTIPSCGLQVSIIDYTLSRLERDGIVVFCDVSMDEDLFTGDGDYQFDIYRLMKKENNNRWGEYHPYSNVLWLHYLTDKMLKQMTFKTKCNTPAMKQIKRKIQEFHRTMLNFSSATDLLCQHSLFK

The target in assay [5] is PIM3 (Homo sapiens, UniProt Q86V86).
Assay [6] has as its target T3, ULK3 (Homo sapiens, UniProt Q6PHR2).
T3 sequence (Q6PHR2 1-472): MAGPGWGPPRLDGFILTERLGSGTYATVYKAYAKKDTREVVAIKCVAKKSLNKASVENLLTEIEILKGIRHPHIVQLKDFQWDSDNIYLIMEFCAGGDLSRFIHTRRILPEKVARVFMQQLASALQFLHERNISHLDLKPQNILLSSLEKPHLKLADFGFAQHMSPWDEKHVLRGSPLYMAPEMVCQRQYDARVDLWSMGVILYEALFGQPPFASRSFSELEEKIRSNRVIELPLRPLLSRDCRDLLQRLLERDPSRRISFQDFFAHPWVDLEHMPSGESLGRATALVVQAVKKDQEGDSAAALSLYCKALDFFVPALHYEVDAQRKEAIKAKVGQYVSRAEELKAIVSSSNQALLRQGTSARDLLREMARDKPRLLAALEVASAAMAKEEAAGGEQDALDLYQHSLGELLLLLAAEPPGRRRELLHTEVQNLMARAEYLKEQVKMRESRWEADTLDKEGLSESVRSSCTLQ

Structures are written as SMILES. Where two headings read alike, the source gives them in different places.

For `CNc1ncc2cc(-c3ccc(-c4cccc(C)n4)cc3Cl)c(=O)n(CC3OCC(N)CO3)c2n1` (centres unmarked) [compound 2, G-5555], the “dTm G-5555 (2)” value in assay [1] (10 µM, binder) is 1.7 °C; in assay [2] (10 µM, binder) it was 0.7 °C; in assay [3] (10 µM, binder), 0.1 °C; in assay [4] (10 µM, binder), 0.2 °C; in assay [5] (10 µM, binder), -1.8 °C; in assay [6] (10 µM, binder) it was 8.0 °C.

For the compound `CNc1ncc2cc(-c3ccccc3Cl)c(=O)n(CCCCN)c2n1` [compound 4, 8-(4-Aminobutyl)-6-(2-chlorophenyl)-2-(methylamino)pyrido[2,3-d]pyrimidin-7(8H)-one], the ΔTm at 10 µM in assay [1] (read-out: dTm MR21 (4)) is 6 °C; in assay [2] (read-out: dTm MR21 (4)), 4.7 °C; in assay [3] (read-out: dTm MR21 (4)) it was 2.7 °C; in assay [4] (read-out: dTm MR21 (4)), 0.7 °C; in assay [5] (read-out: dTm MR21 (4)), -0.8 °C; in assay [6] (read-out: dTm MR21 (4)), 2.4 °C.

In the case of `CNc1ncc2cc(-c3cc(Br)ccc3Cl)c(=O)n(C[C@H]3OC[C@H](N)CO3)c2n1` [compound 7, 8-(((2r,5r)-5-Amino-1,3-dioxan-2-yl)methyl)-6-(5-bromo-2-chlorophenyl)-2-(methylamino)pyrido[2,3-d]pyrimidin-7(8H)-one], the ΔTm at 10 µM in assay [1] (read-out: dTm 7) was 2.5 °C; in assay [2] (read-out: dTm 7), 3.7 °C; in assay [3] (read-out: dTm 7), 0.3 °C; in assay [4] (read-out: dTm 7) it was 0.7 °C; in assay [5] (read-out: dTm 7) it was 0.9 °C; in assay [6] (read-out: dTm 7) it was 0.6 °C.

On to `CNc1ncc2cc(-c3cc(Br)ccc3Cl)c(=O)n(CCCCN)c2n1` [compound 6, 8-(4-Aminobutyl)-6-(5-bromo-2-chlorophenyl)-2-(methylamino)pyrido[2,3-d]pyrimidin-7(8H)-one], for which the ΔTm at 10 µM was 3.5 °C in assay [1] (read-out: dTm 6); 4.1 °C in assay [2] (read-out: dTm 6); 1 °C in assay [3] (read-out: dTm 6); 0.7 °C in assay [4] (read-out: dTm 6); -0.4 °C in assay [5] (read-out: dTm 6).

With `CNc1ncc2cc(-c3cc(F)ccc3F)c(=O)n(CCCCN)c2n1` [compound 5, 8-(4-Aminobutyl)-6-(2,5-difluorophenyl)-2-(methylamino)pyrido[2,3-d]pyrimidin-7(8H)-one], the ΔTm at 10 µM in assay [1] (read-out: dTm MR22 (5)) was 3.3 °C; in assay [2] (read-out: dTm MR22 (5)), 3.7 °C; in assay [3] (read-out: dTm MR22 (5)), 1.6 °C; in assay [4] (read-out: dTm MR22 (5)), -0.3 °C; in assay [5] (read-out: dTm MR22 (5)) it was -0.6 °C; in assay [6] (read-out: dTm MR22 (5)) it was 1.9 °C.
